Measured values reported in patent publication EP4707284A1, “HETEROCYCLIC COMPOUND AND USE THEREOF” (Otsuka Pharmaceutical Co., Ltd., priority 2023, dated 2024).

Format: physicochemical
Details: Tris-hydrochloric acid buffer (pH 7.5) 50 mmol/L, magnesium chloride 5 mmol/L, evaluation compound 1 µmol/L, 37°C, 60 minutes, average of duplicate
Procedure: The conversion from the evaluation compounds to brexpiprazole in a buffer (i.e., the stability of the evaluation compounds) was evaluated.
The Example 1 compound was dissolved in acetonitrile/water (1:1, v/v) to 10 mmol/L and further diluted with acetonitrile/water (1:1, v/v) to 100 µmol/L for use.
The other Example compounds and the Reference Example 5 compound to Reference Example 7 compound were each dissolved in DMSO to 10 mmol/L and further diluted with acetonitrile to 100 µmol/L for use, except for the following compounds.
The compounds of Examples 52, 95, 96, 117, and 130 (EX 52, EX 95, EX 96, EX 117, and EX 130) were dissolved in acetonitrile/water (8:2, v/v) to 10 mmol/L and further diluted with acetonitrile to 100 µmol/L for use.
The compound of Example 97 (EX 97) was dissolved in acetonitrile/water (8:2, v/v) to 10 mmol/L and further diluted with acetonitrile/water (8:2, v/v) to 100 µmol/L for use.
The compounds of Examples 15 and 116 (EX 15 and EX 116) were dissolved in DMSO to 1 mmol/L and further diluted with acetonitrile to 100 µmol/L for use.
These evaluation compound solutions were prepared at the time of use.
The reaction was conducted by preparing each reaction solution such that the final concentration of each component was as follows. The test was conducted in duplicate.
For the compounds of Examples 1 to 8, 10 to 19, 26 to 27, 37, 50, 87 to 89, 91, 116, 121, 123, 150, and 151 (EX 1 to EX 8, EX 10 to EX 19, EX 26 to EX 27, EX 37, EX 50, EX 87 to EX 89, EX 91, EX 116, EX 121, EX 123, EX 150, and EX 151), and the compounds of Reference Examples 5 to 7 (REX 5 to REX 7), the reaction solution without the evaluation compound (198 µl) was pre-incubated at 37°C for 3 minutes, and then each of the evaluation compound solutions (2 µl) was added and stirred; thereafter, the reaction was started at 37°C. At 0 minutes or 60 minutes after the start of the reaction, the reaction was stopped by adding and stirring a reaction stop solution (1000 µl) composed of acetonitrile/isopropanol (4:1, v/v) containing internal standard substances. However, the 0-minute reaction sample (198 µl) was prepared by adding the evaluation compound (2 µl) after adding the reaction stop solution (1000 µl). The samples after stopping the reaction were used as the measurement samples. Calibration curve samples with the same composition were prepared (final concentrations of the evaluation compounds and brexpiprazole: 0.01, 0.1, and 1 µmol/L, with the proviso that for the evaluation compounds only, the 0-minute reaction samples were also used as calibration curve samples for 1 µmol/L).
For the compounds of Examples 24 to 25, 28 to 29, 32 to 36, 40 to 49, 51 to 60, 62 to 64, 66 to 77, 80 to 86, 90, 92 to 111, 113, 115, 117 to 120, 122, 124 to 130, 132 to 147, and 152 to 160 (EX 24 to EX 25, EX 28 to EX 29, EX 32 to EX 36, EX 40 to EX 49, EX 51 to EX 60, EX 62 to EX 64, EX 66 to EX 77, EX 80 to EX 86, EX 90, EX 92 to EX 111, EX 113, EX 115, EX 117 to EX 120, EX 122, EX 124 to EX 130, EX 132 to EX 147, and EX 152 to EX 160), the reaction solution without the evaluation compound (148.5 µl) was pre-incubated at 37°C for 3 minutes, and then each of the evaluation compound solutions (1.5 µl) was added and stirred; thereafter, the reaction was started at 37°C. At 0 minutes or 60 minutes after the start of the reaction, the reaction was stopped by adding and stirring a reaction stop solution (600 µl) composed of acetonitrile/isopropanol (4:1, v/v) containing internal standard substances. However, the 0-minute reaction sample (148.5 µl) was prepared by adding the evaluation compound (1.5 µl) after adding the reaction stop solution (600 µl). The samples after stopping the reaction were used as the measurement samples. […]

Row | Structure (SMILES) | Concentration of brexpiprazole formed [nM] | Concentration of evaluation compound decreased [nM]
1 | COCCCCOP(=O)([O-])OC[N+]1(CCCCOc2ccc3ccc(=O)[nH]c3c2)CCN(c2cccc3sccc23)CC1 [EX 50] | 0 | 10
2 | CC(C)COCCOP(=O)([O-])OC[N+]1(CCCCOc2ccc3ccc(=O)[nH]c3c2)CCN(c2cccc3sccc23)CC1 [EX 51] | 0 | 50
3 | O=c1ccc2ccc(OCCCC[N+]3(COP(=O)([O-])OCCOCC4CC4)CCN(c4cccc5sccc45)CC3)cc2[nH]1 [EX 52] | 0 | -40
4 | COCCOCOCCCCOP(=O)([O-])OC[N+]1(CCCCOc2ccc3ccc(=O)[nH]c3c2)CCN(c2cccc3sccc23)CC1 [EX 53] | 0 | 60
5 | COCC1CCC(COP(=O)([O-])OC[N+]2(CCCCOc3ccc4ccc(=O)[nH]c4c3)CCN(c3cccc4sccc34)CC2)CC1 (centres unmarked) [EX 54] | 0 | 140
6 | CC1(C)OCC(COP(=O)([O-])OC[N+]2(CCCCOc3ccc4ccc(=O)[nH]c4c3)CCN(c3cccc4sccc34)CC2)CO1 [EX 55] | 0 | 70
7 | COCC(COC)OP(=O)([O-])OC[N+]1(CCCCOc2ccc3ccc(=O)[nH]c3c2)CCN(c2cccc3sccc23)CC1 [EX 56] | 0 | 40
8 | O=C(OCCCCCCOP(=O)([O-])OC[N+]1(CCCCOc2ccc3ccc(=O)[nH]c3c2)CCN(c2cccc3sccc23)CC1)c1ccccc1 [EX 57] | 0 | 90
9 | COc1ccc(C(=O)OCCCCCCOP(=O)([O-])OC[N+]2(CCCCOc3ccc4ccc(=O)[nH]c4c3)CCN(c3cccc4sccc34)CC2)cc1 [EX 58] | 0 | 40
10 | Cc1cccc(C(=O)OCCCCCCOP(=O)([O-])OC[N+]2(CCCCOc3ccc4ccc(=O)[nH]c4c3)CCN(c3cccc4sccc34)CC2)n1 [EX 59] | 0 | 50
11 | O=c1ccc2ccc(OCCCC[N+]3(COP(=O)([O-])OCCCCBr)CCN(c4cccc5sccc45)CC3)cc2[nH]1 [EX 62] | 0 | 180
12 | O=c1ccc2ccc(OCCCC[N+]3(COP(=O)([O-])OCC#CCCl)CCN(c4cccc5sccc45)CC3)cc2[nH]1 [EX 63] | 0 | 20
13 | O=c1ccc2ccc(OCCCC[N+]3(COP(=O)([O-])OCCCCCCCBr)CCN(c4cccc5sccc45)CC3)cc2[nH]1 [EX 64] | 0 | 30
14 | CSCCCOP(=O)([O-])OC[N+]1(CCCCOc2ccc3ccc(=O)[nH]c3c2)CCN(c2cccc3sccc23)CC1 [EX 66] | 0 | 170
15 | CC1(C)OCC(C(=O)OCOP(=O)([O-])OC[N+]2(CCCCOc3ccc4ccc(=O)[nH]c4c3)CCN(c3cccc4sccc34)CC2)CO1 [EX 67] | 0 | 90
16 | CC(C)(C)OC(=O)CCCC(=O)OCOP(=O)([O-])OC[N+]1(CCCCOc2ccc3ccc(=O)[nH]c3c2)CCN(c2cccc3sccc23)CC1 [EX 69] | 0 | -10
